Values of other authors as cited in patent publication US6939965B2, “Process of manufacture of 1,3-oxathiolane nucleosides using titanium trichloride mono-isopropoxide” (Gilead Sciences, Inc., priority 1998, dated 2005).

How the values were obtained:
HIV [1] = conditions: racemic mixture, compared with AZT
HIV [2] = system: HIV

| SMILES | activity against HIV relative to AZT (HIV [1]) | HIV activity (HIV [2]) |
| --- | --- | --- |
| Nc1ccn(C2CSC(CO)O2)c(=O)n1 (racemic) [BCH-189, 2-hydroxymethyl-5-(cytosin-1-yl)-1,3-oxathiolane] | approximately the sane activity against HIV as AZT | – |
| Nc1nc(=O)n([C@@H]2CS[C@H](CO)O2)cc1F (relative stereo) [FTC, cis-2-hydroxymethyl-5-(5-fluorocytosin-1-yl)-1,3-oxathiolane] | – | potent HIV activity |
